≈ marks a conversion by molar mass, not a printed value.
Tested on: Mycobacterium tuberculosis
Test: Antimycobacterial activity against multidrug-resistant Mycobacterium tuberculosis 2745/09
Format: functional

Row | Structure (SMILES) | MIC
1 | CN(c1nc(=O)c2cc(C(F)(F)F)cc([N+](=O)[O-])c2s1)[C@H]1CCN(Cc2ccccc2)C1 | > 0.03 µg/mL
2 | O=c1nc(N2CCC(F)(F)CC2)sc2c([N+](=O)[O-])cc(C(F)(F)F)cc12 | ≤ 0.125 µg/mL
3 | COC(=O)[C@@H]1OC2(CCN(c3nc(=O)c4cc(C(F)(F)F)cc([N+](=O)[O-])c4s3)CC2)O[C@H]1c1ccccc1 | > 0.03 µg/mL
4 | COC(=O)C1CN(c2nc(=O)c3cc(C(F)(F)F)cc([N+](=O)[O-])c3s2)CCC12OC[C@H](C)O2 (some centres not stated) | > 0.1 µg/mL
5 | Cc1ccc(CNc2nc(=O)c3cc(C(F)(F)F)cc([N+](=O)[O-])c3s2)n1C | ≤ 0.125 µg/mL
6 | CN(C(=O)CN1CCN(c2nc(=O)c3cc(C(F)(F)F)cc([N+](=O)[O-])c3s2)CC1)c1ccccc1 | 0.03 µg/mL (≈ 0.0591 µM)
7 | O=c1nc(N2CCN(c3nccs3)CC2)sc2c([N+](=O)[O-])cc(C(F)(F)F)cc12 | ≤ 0.125 µg/mL
8 | C[C@H]1COC2(CCN(c3nc(=O)c4cc(C(F)(F)F)cc([N+](=O)[O-])c4s3)CC2)O1 [BTZ-043] | ≤ 0.015 µg/mL
9 | CN(C)c1ccc(CN(C)c2nc(=O)c3cc(C(F)(F)F)cc([N+](=O)[O-])c3s2)cc1 | 0.03 µg/mL (≈ 0.0684 µM)
10 | O=c1nc(NCc2ccc3c(c2)OCCO3)sc2c([N+](=O)[O-])cc(C(F)(F)F)cc12 | 0.03 µg/mL (≈ 0.0683 µM)
11 | O=c1nc(N2CCC(c3ccccc3)CC2)sc2c([N+](=O)[O-])cc(C(F)(F)F)cc12 | ≤ 0.0125 µg/mL
12 | CCCOCC1COC2(CCN(c3nc(=O)c4cc(C(F)(F)F)cc([N+](=O)[O-])c4s3)CC2)O1 (configuration not stated) | ≤ 0.015 µg/mL

From ChEMBL document CHEMBL2177104, “Identification of antitubercular benzothiazinone compounds by ligand-based design” (J Med Chem, 2012)
